The text below walks through data of patent US20180230399A1, “ORGANIC COMPOUNDS” (GIVAUDAN SA, priority 2014, published 2018).

Read-outs that look alike come from different tables or passages of the source.

Series [1] relates to hepatocytes from male rats (Sprague Dawley). As to the kind of experiment: In vitro metabolism study in rat hepatocytes in suspension, GC-MS. The following applies: for Benzoic acid derivative concentration / Residual conc.: male, Sprague-Dawley, rat, 4 h, 100 μM. As for the experimental part:
In order to study in vitro metabolism in rat hepatocytes, Lilial™ and compounds of the present invention may be incubated in the presence of rat hepatocytes in suspension. Reduction in the concentration of Lilial™ and the compounds of the present invention and formation of any of the corresponding benzoic acid derivatives may be analysed by GC-MS.
Cryopreserved hepatocytes from male rats (Sprague Dawley; Lifetechnologies) were defrozen, washed in Cyropreserved Hepatocytes Recovery Medium (CHRM; Lifetechnologies) and suspended in Williams E Medium (WEM; Lifetechnologies). Lilial™, or the compounds of the present invention (final concentration: 100 μM) were added to the cells (1×10^6 viable cells/ml) and suspensions were incubated up to 4 hours at 37° C. on a shaker in duplicate. Metabolism of testosterone was monitored as positive control. Decrease of the test compounds and formation of the corresponding benzoic acid derivative was determined by GC-MS analysis of methyl esters formed after derivatisation with trimethylsilyl diazomethane (Sigma-Aldrich) in methanol. The test compounds react with diazomethane yielding a methyl ketone which was used for the quantification of Lilial™ and the compound of formula (I). Metabolism was stopped with ice cold 1 M HCl, samples were extracted with tert-butyl methyl ether (MTBE) and analysed by GC-MS. Incubations containing testosterone as control were also stopped with ice cold 1 M HCl, centrifuged to separate the cells, filtrated and the decrease of testosterone analysed by LC-MS. To quantify decrease of the test substances and formation of benzoic acid metabolites, calibration curves of reference materials Lilial™ and the compounds of the present invention, tert-butyl benzoic acid (Fluka) was prepared in hepatocyte incubation medium and analysed like the hepatocyte samples.

Another series relates to primates. The conditions noted are these: cited from earlier work.
The subject of a further series is guinea-pigs. The conditions noted are these: cited from earlier work.
In the next series the test system is mice. The following applies: cited from earlier work.
The nature of series [2]: Formation of the corresponding esters with Coenzym A. The conditions noted are these: further experiment. Type of series: in vitro ADME.
The next series relates to fatty acid synthesis. The conditions noted are these: in vitro; McCune et al 1982; cited from earlier work.
For another series, the system named is glucose synthesis. The following applies: in vitro; McCune et al 1982; cited from earlier work.
Another series has as its system male rats. The following applies: Hunter et al. 1965, Cagen et al. 1989; cited from earlier work.

On to `C[C@]12CC[C@H]3[C@@H](CCC4=CC(=O)CC[C@@]43C)[C@@H]1CC[C@@H]2O` [testosterone], for which, in series [1] (rat hepatocytes, up to 4 hours at 37° C.), the “Decrease of the test compound (in words)” value is given as “rapid decrease”.
For the molecule `CC(C)(C)c1ccc(CCCC=O)cc1`, in series [1], the “Benzoic acid derivative concentration” value came to 1.3 µM and the Residual conc. worked out at 0.7 µM.
With `CC(C=O)Cc1ccc(C(C)(C)C)cc1` (stereo not shown) [Lilial™, 3-(4-tert-butylphenyl)-2-methylpropanal], the “Decrease of the test compound (in words)” value in series [1] is listed as “metabolised rapidly”. In series [1], this molecule had a Residual conc. of 0 µM. The Effects in studies result in the series with primates, in the series on guinea-pigs and in the series on mice was “No effects” in each case.
As to `CC(C)Cc1ccc(CCCC=O)cc1`, in series [1], the “Benzoic acid derivative concentration” value is 0.5 µM and the Residual conc. worked out at 0.2 µM.
Take `CC(C)c1ccc(CCCC=O)cc1`: in series [1], the “Benzoic acid derivative concentration” value turned out to be 1.4 µM and the Residual conc. came to 0 µM.
Regarding `Cc1cc(CC(C)C)ccc1CCCC=O` [Example 3, 4-(4-Isobutyl-2-methylphenyl)butanal], in series [2], the “Formation of the corresponding esters with Coenzym A” value is given as “does not provide the formation of the corresponding esters with Coenzym A”.
With `CC(C)(C)c1ccc(C(=O)O)cc1` [tert-Butyl benzoic acid, tert-butyl benzoic acid], the “Inhibition of fatty acid synthesis” value in the series on fatty acid synthesis is “inhibit”. Besides, the “Inhibition of glucose synthesis” value in the series with glucose synthesis was “inhibit”. The Testicular effects entry in the series on male rats is reported as “testicular effects”.
